The nature of data set [1]: Circular dichroism spectroscopy. To be noted: CD, 50% TFE (vol/vol), peptide 0.2 mg/mL, room temperature. The format is physicochemical. The procedure: Peptides were dissolved in ultrapure water or 50% TFE (vol/vol) at a concentration of 0.2 mg/mL for spectroscopy. Spectra of samples in a 1 mm pathlength quartz cuvette were recorded from 180 to 260 nm at 0.5 nm steps using an Applied Photophysics Chirascan Plus CD spectrophotometer operating at room temperature.
(CD spectra are sensitive to the conformation of chiral molecules.)

Data set [2] has as its system S. aureus ATCC 29213. The data set is described as follows: MIC determination in broth. The class given is cell-based, Staphylococcus aureus. To be noted: STIP3 variants, highest conc. tested 100 μg/mL; cation-adjusted MH broth, ~10^5 CFU/mL, 2-fold dilution series, 37°C, 16 h. As to the method:
(§1) M. luteus ATCC 4698, S. aureus ATCC 29213, a panel of 7 MRSA (ATCC MP-2) strains, which includes ATCC BAA-41, BAA-42, BAA-44, BAA-1683, BAA-2094, BAA-2313, and 33592, and a series of additional bacterial isolates from human and veterinary cases were used in this study (Table S6). Bacterial strains were routinely grown in lysogeny broth (LB: 10 g/L tryptone, 5 g/L yeast extract, 10 g/L NaCl) at 30°C (M. luteus) or 37°C (Staphylococcus spp.) prior to use in specific experiments described below.
(§2) The MICs were measured for bioactive peptides identified from the initial screen. Cation-adjusted Mueller-Hinton (MH) broth was used as the growth medium for MIC determination experiments. Bacterial cultures were diluted to an OD of 5 × 10^−4 (∼10^5 CFU/mL) in 200 μL MH broth mixed with peptides in a 2-fold dilution series arrayed in 96-well plates. Plates were incubated without shaking at 30 or 37°C depending on the organism.

For data set [3], the system named is MRSA ATCC 33592. As to the kind of experiment: MIC determination in broth. The format is cell-based, Staphylococcus aureus. The settings on record: for Increase of the MIC relative to STIP3-29: D-Lys substituted variants; for MIC (μg/mL) for MRSA ATCC 33592: Table 1 and text; for MIC (μg/mL) for MRSA ATCC 33592 / MIC, S. aureus ATCC 33592 (SCCmec III): cation-adjusted MH broth, ~10^5 CFU/mL, 37°C, 16 h; for MIC, S. aureus ATCC 33592 (SCCmec III): Table S5, STIP3 variants, highest conc. tested 100 μg/mL, 2-fold dilution series. The procedure: as §1, §2

≈ marks a conversion by molar mass, not a printed value. Non-standard residues stand in square brackets, D forms with d. Residues, ends and D or L forms follow the SMILES beside them. *: point of attachment. 5FAM = O=C1OC2(c3ccc(O)cc3Oc3cc(O)ccc32)c2ccc(C(=O)*)cc21

Regarding `CC[C@@H](C)[C@@H](NC(=O)[C@@H](Cc1c[nH]c2ccccc12)NC(=O)[C@@H](CCCCN)NC(=O)[C@H](NC(=O)[C@@H](CC(C)C)NC(=O)CNC(=O)CNC(=O)[C@H](NC(=O)[C@H](NC(=O)c1ccc2c(c1)C(=O)OC21c2ccc(O)cc2Oc2cc(O)ccc21)[C@H](C)O)C(C)C)C(C)C)C(=O)N[C@H](CC(C)C)C(=O)N[C@H](CCCCN)C(=O)N[C@@H](C(=O)N[C@@H](C(=O)N[C@H](CCCCN)C(=O)N[C@H](CCCCN)C(=O)N[C@H](Cc1ccccc1)C(=O)N[C@H](C)C(N)=O)C(C)C)[C@H](C)O` [FAM-D-STIP3-29] (5FAM-[dT][dV]GG[dL][dV][dK][dW][dI][dL][dK][dT][dV][dK][dK][dF][dA]-NH2; C-terminus assumed), the “α-Helical content (%)” value in data set [1] worked out at 55%.
Take `CC[C@H](C)[C@H](NC(=O)[C@H](Cc1c[nH]c2ccccc12)NC(=O)[C@H](CCCCN)NC(=O)[C@@H](NC(=O)[C@H](CC(C)C)NC(=O)CNC(=O)CNC(=O)[C@@H](NC(=O)[C@@H](NC(=O)c1ccc2c(c1)C(=O)OC21c2ccc(O)cc2Oc2cc(O)ccc21)[C@@H](C)O)C(C)C)C(C)C)C(=O)N[C@@H](CC(C)C)C(=O)N[C@@H](CCCCN)C(=O)N[C@H](C(=O)N[C@H](C(=O)N[C@@H](CCCCN)C(=O)N[C@@H](CCCCN)C(=O)N[C@@H](Cc1ccccc1)C(=O)N[C@@H](C)C(N)=O)C(C)C)[C@@H](C)O` [FAM-L-STIP3-29] (5FAM-TVGGLVKWILKTVKKFA-NH2; C-terminus assumed): in data set [1], the “α-Helical content (%)” value worked out at 72%.
With `CC[C@H](C)[C@H](NC(=O)[C@H](Cc1c[nH]c2ccccc12)NC(=O)[C@H](CCCCN)NC(=O)[C@@H](NC(=O)[C@H](CC(C)C)NC(=O)CNC(=O)CNC(=O)[C@@H](NC(=O)[C@@H](N)[C@@H](C)O)C(C)C)C(C)C)C(=O)N[C@@H](CC(C)C)C(=O)N[C@H](CCCCN)C(=O)N[C@H](C(=O)N[C@H](C(=O)N[C@@H](CCCCN)C(=O)N[C@@H](CCCCN)C(=O)N[C@@H](Cc1ccccc1)C(=O)N[C@@H](C)C(N)=O)C(C)C)[C@@H](C)O` [STIP3-29-D1] (H-TVGGLVKWIL[dK]TVKKFA-NH2; N-terminus assumed), the “MIC, S. aureus ATCC 29213” value in data set [2] amounted to 12.5 µg/mL (≈ 6.62 µM). Also, in data set [3], the “Increase of the MIC relative to STIP3-29” value was 4 fold; the “MIC (μg/mL) for MRSA ATCC 33592” value amounted to 25 µg/mL; the “MIC, S. aureus ATCC 33592 (SCCmec III)” value is 25 µg/mL (≈ 13.2 µM). Besides, the “α-Helical content (%)” value in data set [1] was found to be 51%.
With `CC[C@H](C)[C@H](NC(=O)[C@H](Cc1c[nH]c2ccccc12)NC(=O)[C@@H](CCCCN)NC(=O)[C@@H](NC(=O)[C@H](CC(C)C)NC(=O)CNC(=O)CNC(=O)[C@@H](NC(=O)[C@@H](N)[C@@H](C)O)C(C)C)C(C)C)C(=O)N[C@@H](CC(C)C)C(=O)N[C@H](CCCCN)C(=O)N[C@H](C(=O)N[C@H](C(=O)N[C@@H](CCCCN)C(=O)N[C@H](CCCCN)C(=O)N[C@@H](Cc1ccccc1)C(=O)N[C@@H](C)C(N)=O)C(C)C)[C@@H](C)O` [STIP3-29-D3] (H-TVGGLV[dK]WIL[dK]TVK[dK]FA-NH2; N-terminus assumed), the “MIC, S. aureus ATCC 29213” value in data set [2] is “> (The > symbol indicates that no inhibition was observed at 100 μg/mL for the STIP3 variants)”. Further, in data set [3], the “Increase of the MIC relative to STIP3-29” value is recorded as “inactivation”; the “MIC (μg/mL) for MRSA ATCC 33592” value was greater than 100 µg/mL; the “MIC, S. aureus ATCC 33592 (SCCmec III)” value is “> (The > symbol indicates that no inhibition was observed at 100 μg/mL for the STIP3 variants)”. The “α-Helical content (%)” value in data set [1] was determined as 32%.

For the origin of these results see paper PMC8694143 (Microbiology Spectrum, 2021).
